Where “and” joins values, the source holds several entries; their conditions need not be identical. Equal values may be shown once.
Assays:
Italian ryegrass = test: Test F postemergence; assay type: in vivo, Lolium multiflorum; conditions: scale 0 to 100
Excerpt: (§1) Seeds of plant species selected from corn (Zea mays), soybean (Glycine max), velvetleaf (Abutilon theophrasti), lambsquarters (Chenopodium album), wild poinsettia (Euphorbia heterophylla), pigweed, palmer (palmer pigweed, Amaranthus palmeri), common waterhemp (Amaranthus rudis), surinam grass (Brachiaria decumbens), large crabgrass (Digitaria sanguinalis), crabgrass, Brazil (Brazilian crabgrass, Digitaria horizontalis), fall panicum (Panicum dichotomiflorum), giant foxtail (Setaria faberii), green foxtail (Setaria viridis), goosegrass (Eleusine indica), johnsongrass (Sorghum halepense), common ragweed (Ambrosia elation), barnyardgrass (Echinochloa crus-galli), southern sandbur (Cenchrus echinatus), arrowleaf sida (Sida rhombifolia), Italian ryegrass (Lolium multiflorum), dayflower, VA (Virginia (VA) dayflower, Commelina virginica), field bindweed (Convolvulus arvensis), cocklebur (common cocklebur, Xanthium strumarium), morningglory (Ipomoea coccinea), nightshade (eastern black nightshade, Solanum ptycanthum), kochia (Kochia scoparia), yellow nutsedge (Cyperus esculentus), and hairy beggarticks (Bidens pilosa), were planted into a silt loam soil and treated preemergence with test chemicals formulated in a non-phytotoxic solvent mixture which included a surfactant.
(§2) At the same time, plants from these crop and weed species and also horseweed (Canada horseweed, Conyza canadensis), smartweed (ladysthumb smartweed, Polygonum persicaria), waterhemp_RES1, (ALS & Triazine resistant common waterhemp, Amaranthus rudis), and waterhemp_RES2, (ALS & HPPD resistant common waterhemp, Amaranthus rudis) were treated with postemergence applications of test chemicals formulated in the same manner. Plants ranged in height from 2 to 18 cm for postemergence treatments (1- to 4-leaf stage). Treated plants and controls were maintained in a greenhouse for 14 to 21 days, after which time all species were compared to controls and visually evaluated. Plant response ratings, summarized in Table F, are based on a scale of 0 to 100 where 0 is no effect and 100 is complete control. A dash (-) response means no test result.

smartweed = test: Test F postemergence; assay type: in vivo, Polygonum persicaria; conditions: postemergence, 62 g ai/ha; scale 0 to 100
Excerpt: as §1, §2

[1] = tested on: waterhemp_RES2 (ALS & HPPD resistant common waterhemp); test: Test F postemergence; assay type: in vivo, Amaranthus rudis; conditions: scale 0 to 100
Excerpt: as §1, §2

common waterhemp = test: Test F postemergence; assay type: in vivo, Amaranthus rudis; conditions: scale 0 to 100
Excerpt: as §1, §2

pigweed, palmer = test: Test F postemergence; assay type: in vivo, Amaranthus palmeri; conditions: scale 0 to 100
Excerpt: as §1, §2

barnyardgrass = test: Test F postemergence; assay type: in vivo, Echinochloa crus-galli; conditions: scale 0 to 100
Excerpt: as §1, §2

field bindweed = test: Test F postemergence; assay type: in vivo, Convolvulus arvensis; conditions: scale 0 to 100
Excerpt: as §1, §2

soybean = test: Test F postemergence; assay type: in vivo, Glycine max; conditions: scale 0 to 100
Excerpt: as §1, §2

crabgrass, Brazil = test: Test F postemergence; assay type: in vivo, Digitaria horizontalis; conditions: scale 0 to 100
Excerpt: as §1, §2

hairy beggarticks = test: Test F postemergence; assay type: in vivo, Bidens pilosa; conditions: scale 0 to 100
Excerpt: as §1, §2

dayflower, VA = test: Test F postemergence; assay type: in vivo, Commelina virginica; conditions: scale 0 to 100
Excerpt: as §1, §2

arrowleaf sida = test: Test F preemergence; assay type: in vivo, Sida rhombifolia
Excerpt: as §1, §2

[2] = Preemergence, 62 g ai/ha, scale 0 to 100
[3] = Preemergence, 125 g ai/ha, scale 0 to 100
[4] = preemergence, 16 g ai/ha, scale 0 to 100, 100 is complete control
[5] = Preemergence, 250 g ai/ha, scale 0 to 100

SMILES: CCc1cc(-c2ccc(C(F)(F)F)cc2)nn1Cc1ccnc(C(F)(F)F)c1 [Compound 110]
- Plant response rating, Italian Ryegrass (Italian ryegrass; Postemergence, 16 g ai/ha): 20
- Plant response rating, Italian Ryegrass (Italian ryegrass; Postemergence, 31 g ai/ha): 20
- Plant response rating, Italian Ryegrass (Italian ryegrass; Postemergence, 125 g ai/ha): 30
- Plant response rating, Italian Ryegrass (Italian ryegrass; postemergence, 8 g ai/ha): 10
- Plant response rating, Smartweed (smartweed): 50
- Plant response rating, Waterhemp_RES2 ([1]; Postemergence, 16 g ai/ha): 90
- Plant response rating, Waterhemp_RES2 ([1]; Postemergence, 31 g ai/ha): 98
- Plant response rating, Waterhemp_RES2 ([1]; Postemergence, 125 g ai/ha): 100
- Plant response rating, Waterhemp_RES2 ([1]; postemergence, 62 g ai/ha): 60 and 98
- Plant response rating, Waterhemp_RES2 ([1]; postemergence, 8 g ai/ha): 85
- Plant response rating, Common Waterhemp (common waterhemp; Postemergence, 16 g ai/ha): 95
- Plant response rating, Common Waterhemp (common waterhemp; Postemergence, 31 g ai/ha): 100
- Plant response rating, Common Waterhemp (common waterhemp; Postemergence, 125 g ai/ha): 100
- Plant response rating, Common Waterhemp (common waterhemp; postemergence, 62 g ai/ha): 60 and 90
- Plant response rating, Common Waterhemp (common waterhemp; postemergence, 8 g ai/ha): 90
- Plant response rating, Pigweed, Palmer (pigweed, palmer; Postemergence, 16 g ai/ha): 85
- Plant response rating, Pigweed, Palmer (pigweed, palmer; Postemergence, 31 g ai/ha): 90
- Plant response rating, Pigweed, Palmer (pigweed, palmer; Postemergence, 125 g ai/ha): 85
- Plant response rating, Pigweed, Palmer (pigweed, palmer; postemergence, 62 g ai/ha): 50 and 85
- Plant response rating, Pigweed, Palmer (pigweed, palmer; postemergence, 8 g ai/ha): 60
- Plant response rating, Barnyardgrass (barnyardgrass; Postemergence, 16 g ai/ha): 20
- Plant response rating, Barnyardgrass (barnyardgrass; Postemergence, 31 g ai/ha): 20
- Plant response rating, Barnyardgrass (barnyardgrass; Postemergence, 125 g ai/ha): 50
- Plant response rating, Barnyardgrass (barnyardgrass; postemergence, 8 g ai/ha): 10
- Plant response rating, Field Bindweed (field bindweed; Postemergence, 16 g ai/ha): 40
- Plant response rating, Field Bindweed (field bindweed; Postemergence, 31 g ai/ha): 60
- Plant response rating, Field Bindweed (field bindweed; Postemergence, 125 g ai/ha): 60
- Plant response rating, Field Bindweed (field bindweed; postemergence, 62 g ai/ha): 40 and 50
- Plant response rating, Field Bindweed (field bindweed; postemergence, 8 g ai/ha): 30
- Plant response rating, Soybean (soybean; Postemergence, 16 g ai/ha): 30
- Plant response rating, Soybean (soybean; Postemergence, 31 g ai/ha): 30
- Plant response rating, Soybean (soybean; Postemergence, 125 g ai/ha): 30
- Plant response rating, Soybean (soybean; postemergence, 8 g ai/ha): 20
- Plant response rating, Crabgrass, Brazil (crabgrass, Brazil; Postemergence, 16 g ai/ha): 30
- Plant response rating, Crabgrass, Brazil (crabgrass, Brazil; Postemergence, 31 g ai/ha): 30
- Plant response rating, Crabgrass, Brazil (crabgrass, Brazil; Postemergence, 125 g ai/ha): 50
- Plant response rating, Crabgrass, Brazil (crabgrass, Brazil; postemergence, 62 g ai/ha): 30 and 40
- Plant response rating, Crabgrass, Brazil (crabgrass, Brazil; postemergence, 8 g ai/ha): 20
- Plant response rating, Hairy Beggarticks (hairy beggarticks; Postemergence, 16 g ai/ha): 50
- Plant response rating, Hairy Beggarticks (hairy beggarticks; Postemergence, 31 g ai/ha): 60
- Plant response rating, Hairy Beggarticks (hairy beggarticks; Postemergence, 125 g ai/ha): 70
- Plant response rating, Hairy Beggarticks (hairy beggarticks; postemergence, 62 g ai/ha): 50 and 60
- Plant response rating, Hairy Beggarticks (hairy beggarticks; postemergence, 8 g ai/ha): 30
- Plant response rating, Dayflower, VA (dayflower, VA; Postemergence, 16 g ai/ha): 50
- Plant response rating, Dayflower, VA (dayflower, VA; Postemergence, 31 g ai/ha): 40
- Plant response rating, Dayflower, VA (dayflower, VA; Postemergence, 125 g ai/ha): 60
- Plant response rating, Dayflower, VA (dayflower, VA; postemergence, 62 g ai/ha): 30 and 60
- Plant response rating, Dayflower, VA (dayflower, VA; postemergence, 8 g ai/ha): 25
- Plant response rating, Arrowleaf Sida (arrowleaf sida; Preemergence, 31 g ai/ha, scale 0 to 100): 65
- Plant response rating, Arrowleaf Sida (arrowleaf sida; [2]): 80
- Plant response rating, Arrowleaf Sida (arrowleaf sida; [3]): 90
- Plant response rating, Arrowleaf Sida (arrowleaf sida; preemergence, 8 g ai/ha, scale 0 to 100, 100 is complete control): 35
- Plant response rating, Arrowleaf Sida (arrowleaf sida; [4]): 65

SMILES: CCCc1cc(C(=O)NC(C)C)nn1Cc1cc(C(F)(F)F)nn1C [Compound 201]
- Plant response rating, Arrowleaf Sida (arrowleaf sida; Preemergence, 16 g ai/ha, scale 0 to 100): 0
- Plant response rating, Arrowleaf Sida (arrowleaf sida; [2]): 0
- Plant response rating, Arrowleaf Sida (arrowleaf sida; [3]): 0
- Plant response rating, Arrowleaf Sida (arrowleaf sida; [5]): 75
- Plant response rating, Arrowleaf Sida (arrowleaf sida; [4]): 0

SMILES: CCc1cc(C(=O)NCC(F)(F)F)nn1Cc1ccnc(Br)c1 [Compound 224]
- Plant response rating, Arrowleaf Sida (arrowleaf sida; [2]): 35
- Plant response rating, Arrowleaf Sida (arrowleaf sida; [3]): 30
- Plant response rating, Arrowleaf Sida (arrowleaf sida; [5]): 35

Source: US20150105252A1, “SUBSTITUTED PYRAZOLES AS HERBICIDES” (E I DU PONT DE NEMOURS AND COMPANY, priority 2013, published 2015)
